Experimental data taken from ChEMBL document CHEMBL3885861, “Open TG-GATES”.

Species on record: Rattus norvegicus
Experiment: Open TG-GATES - Regimen: Single
Type: toxicity, organism-based, Sprague-Dawley
Design: regimen Single, gender Male, age 6 weeks
Details: in vivo, po, 5 mg/kg, route gavage, dose level Low; for APTT / Bas / Eos / Fbg / Hb / Ht / Lym / MCH / MCHC / MCV / Mono / Neu / PT / Plat / RBC / Ret / WBC: tissue Blood; for LIVER: tissue Liver; for A/G / ALP / ALT / AST / BUN / CRE / Ca / Cl / DBIL / GLC / IP / K / LDH / Na / PL / RALB / TBIL / TC / TG / TP / gamma-GTP: tissue Plasma

C=C(C)[C@H]1Cc2c(ccc3c2O[C@@H]2COc4cc(OC)c(OC)cc4[C@@H]2C3=O)O1 [ROTENONE]
TERMINAL_BW (3 h): 199.1 g | APTT (3 h): 15.7 s | Bas (3 h): 0% | Eos (3 h): 1% | Fbg (3 h): 223 mg/dL | Hb (3 h): 12.6 g/dL | Ht (3 h): 38.3% | Lym (3 h): 77.2% | MCH (3 h): 21.2 pg | MCHC (3 h): 33% | MCV (3 h): 64.3 fL | Mono (3 h): 7.2% | Neu (3 h): 14.6% | PT (3 h): 12.3 s | Plat (3 h): 119.4 x10_4/uL | RBC (3 h): 595.4 x10_4/ul | Ret (3 h): 8.6% | WBC (3 h): 104.4 x10_2/uL | LIVER (3 h): 9.3 g | A/G (3 h): 2.1 | ALP (3 h): 1388.6 IU/L | ALT (3 h): 39 IU/L | AST (3 h): 64.8 IU/L | BUN (3 h): 13.8 mg/dL | CRE (3 h): 0.4 mg/dL | Ca (3 h): 11.5 mg/dL | Cl (3 h): 103.8 meq/L | DBIL (3 h): 0.012 mg/dL | GLC (3 h): 189.2 mg/dL | IP (3 h): 8.4 mg/dL | K (3 h): 4.3 meq/L | LDH (3 h): 112.6 IU/L | Na (3 h): 140.6 meq/L | PL (3 h): 142.2 mg/dL | RALB (3 h): 3.7 g/dL | TBIL (3 h): 0.04 mg/dL | TC (3 h): 89.6 mg/dL | TG (3 h): 74.8 mg/dL | TP (3 h): 5.4 g/dL | gamma-GTP (3 h): 1 IU/L | TERMINAL_BW (6 h): 191.9 g | APTT (6 h): 17.5 s | Bas (6 h): 0% | Eos (6 h): 1% | Fbg (6 h): 227.6 mg/dL | Hb (6 h): 12.9 g/dL | Ht (6 h): 39.6% | Lym (6 h): 77.4% | MCH (6 h): 21 pg | MCHC (6 h): 32.8% | MCV (6 h): 64.1 fL | Mono (6 h): 4.2% | Neu (6 h): 17.8% | PT (6 h): 12.6 s | Plat (6 h): 127.8 x10_4/uL | RBC (6 h): 618.2 x10_4/ul | Ret (6 h): 8.4% | WBC (6 h): 86.8 x10_2/uL | LIVER (6 h): 8.4 g | A/G (6 h): 2.3 | ALP (6 h): 1155.6 IU/L | ALT (6 h): 36.8 IU/L | AST (6 h): 67.6 IU/L | BUN (6 h): 10.6 mg/dL | CRE (6 h): 0.4 mg/dL | Ca (6 h): 11 mg/dL | Cl (6 h): 104.6 meq/L | DBIL (6 h): 0.01 mg/dL | GLC (6 h): 182.8 mg/dL | IP (6 h): 8.9 mg/dL | K (6 h): 4.3 meq/L | LDH (6 h): 86.6 IU/L | Na (6 h): 140 meq/L | PL (6 h): 133.4 mg/dL | RALB (6 h): 3.7 g/dL | TBIL (6 h): 0.046 mg/dL | TC (6 h): 82.2 mg/dL | TG (6 h): 48.6 mg/dL | TP (6 h): 5.4 g/dL | gamma-GTP (6 h): 1 IU/L | TERMINAL_BW (9 h): 190.6 g | APTT (9 h): 16.3 s | Bas (9 h): 0% | Eos (9 h): 1% | Fbg (9 h): 218.6 mg/dL | Hb (9 h): 12.9 g/dL | Ht (9 h): 39.5% | Lym (9 h): 66.8% | MCH (9 h): 21.2 pg | MCHC (9 h): 32.6% | MCV (9 h): 65.1 fL | Mono (9 h): 10.6% | Neu (9 h): 22.2% | PT (9 h): 12.3 s | Plat (9 h): 123.8 x10_4/uL | RBC (9 h): 606.2 x10_4/ul | Ret (9 h): 8.4% | WBC (9 h): 86.2 x10_2/uL | LIVER (9 h): 8.1 g | A/G (9 h): 2.4 | ALP (9 h): 1273.6 IU/L | ALT (9 h): 29.2 IU/L | AST (9 h): 63 IU/L | BUN (9 h): 10.2 mg/dL | CRE (9 h): 0.3 mg/dL | Ca (9 h): 11.1 mg/dL | Cl (9 h): 104.6 meq/L | DBIL (9 h): 0.008 mg/dL | GLC (9 h): 183.4 mg/dL | IP (9 h): 10.2 mg/dL | K (9 h): 4.2 meq/L | LDH (9 h): 102.8 IU/L | Na (9 h): 139.4 meq/L | PL (9 h): 129.6 mg/dL | RALB (9 h): 3.8 g/dL | TBIL (9 h): 0.044 mg/dL | TC (9 h): 78 mg/dL | TG (9 h): 42.4 mg/dL | TP (9 h): 5.4 g/dL | gamma-GTP (9 h): 1 IU/L | TERMINAL_BW (24 h): 213.3 g | APTT (24 h): 15.6 s | Bas (24 h): 0% | Eos (24 h): 1% | Fbg (24 h): 208.6 mg/dL | Hb (24 h): 12.8 g/dL | Ht (24 h): 39% | Lym (24 h): 69% | MCH (24 h): 21.2 pg | MCHC (24 h): 32.8% | MCV (24 h): 64.7 fL | Mono (24 h): 10% | Neu (24 h): 19.8% | PT (24 h): 12 s | Plat (24 h): 123.2 x10_4/uL | RBC (24 h): 602.8 x10_4/ul | Ret (24 h): 8.5% | WBC (24 h): 98.2 x10_2/uL | LIVER (24 h): 10.5 g | A/G (24 h): 2.4 | ALP (24 h): 1417.6 IU/L | ALT (24 h): 40.4 IU/L | AST (24 h): 71 IU/L | BUN (24 h): 15.6 mg/dL | CRE (24 h): 0.4 mg/dL | Ca (24 h): 11.5 mg/dL | Cl (24 h): 103.2 meq/L | DBIL (24 h): 0.014 mg/dL | GLC (24 h): 187.2 mg/dL | IP (24 h): 7.7 mg/dL | K (24 h): 4.6 meq/L | LDH (24 h): 106.6 IU/L | Na (24 h): 139.4 meq/L | PL (24 h): 158.8 mg/dL | RALB (24 h): 3.9 g/dL | TBIL (24 h): 0.034 mg/dL | TC (24 h): 86.2 mg/dL | TG (24 h): 146.8 mg/dL | TP (24 h): 5.6 g/dL | gamma-GTP (24 h): 0.6 IU/L
